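Cultured in 96-well plates, cells were exposed to test compound for 48 hours across five concentrations. At the TGI there is no net growth.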
Assays:
Assay in all cases: DTP human tumour cell line panel, 48 h
[1] = system: HOP-92 NSCLC
[2] = system: K-562 leukemia
[3] = system: HS 578T breast
[4] = system: DU-145 prostate
[5] = system: MDA-MB-231 breast
[6] = system: SNB-19 CNS
[7] = system: A498 renal
[8] = system: NCI-H23 lung
[9] = system: COLO 205 colon
[10] = system: CCRF-CEM leukemia
[11] = system: SF-295 CNS
[12] = system: OVCAR-3 ovarian

SMILES: CC(C)(C)OC(=O)/C=C/[C@@H](CCC(=O)/C=C/[C@H](/C=C\CCCC(=O)O)NC1(c2ccccc2)c2ccccc2-c2ccccc21)O[Si](C)(C)C(C)(C)C
- TGI [1]: 16 µM
- TGI [2]: > 100 µM
- TGI [3]: 77.9 µM
- TGI [4]: 32.6 µM
- TGI [5]: 28.4 µM
- TGI [6]: 41.8 µM
- TGI [7]: 34 µM
- TGI [8]: 36.6 µM
- TGI [9]: 59 µM
- TGI [10]: > 100 µM
- TGI [11]: 33.5 µM
- TGI [12]: 32.9 µM

SMILES: CN(C)C=Nc1cccc2c1NSN2
- TGI [1]: > 100 µM
- TGI [2]: > 100 µM
- TGI [3]: > 100 µM
- TGI [4]: > 100 µM
- TGI [5]: > 100 µM
- TGI [6]: > 100 µM
- TGI [7]: > 100 µM
- TGI [8]: > 100 µM
- TGI [9]: > 100 µM
- TGI [10]: > 100 µM
- TGI [11]: > 100 µM
- TGI [12]: > 100 µM

SMILES: CCN(CC)CCCNc1c2cc(OC)ccc2nc2cccc([N+](=O)[O-])c12
- TGI [1]: 0.239 µM
- TGI [2]: 0.104 µM
- TGI [3]: 0.448 µM
- TGI [4]: 0.426 µM
- TGI [5]: 0.319 µM
- TGI [6]: 2.02 µM
- TGI [7]: 0.0647 µM
- TGI [8]: 0.344 µM
- TGI [9]: 0.102 µM
- TGI [10]: 0.582 µM
- TGI [11]: 0.796 µM
- TGI [12]: 0.176 µM
